Values quoted from earlier work, collected in patent US20210369751A1, “BIOLOGICALLY ACTIVE COMPOSITIONS AND METHODS OF USING” (Mediwel Labs, LLC, priority 2020, published 2021).
“Also recorded” adds a separate entry of the source.

Experiments:
[1] = target: T1, CD38 (Homo sapiens, UniProt P28907); conditions: purified pharmaceutical grade flavonoids; competitive antagonists
T1 sequence (P28907 1-300): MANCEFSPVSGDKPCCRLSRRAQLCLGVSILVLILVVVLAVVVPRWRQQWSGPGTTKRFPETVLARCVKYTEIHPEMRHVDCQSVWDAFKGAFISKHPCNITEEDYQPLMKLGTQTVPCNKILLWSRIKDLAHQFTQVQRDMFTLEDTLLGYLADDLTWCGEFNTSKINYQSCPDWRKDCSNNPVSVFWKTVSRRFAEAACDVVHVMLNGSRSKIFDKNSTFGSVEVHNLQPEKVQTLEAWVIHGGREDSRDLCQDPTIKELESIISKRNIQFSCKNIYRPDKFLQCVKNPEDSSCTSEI

[2] = 20 mg piperine daily for seven days before 150 mg theophylline
[3] = 20 mg piperine daily for seven days before 300 mg phenytoin
[4] = propranolol co-administered with 3 mg piperine

Compound	inhibition of CD38 and its catalytic activity [1]	elimination rate of theophylline with piperine pretreatment [2]	maximum concentration of theophylline, pretreated with piperine versus drug alone ([2]; six healthy volunteers)	elimination of phenytoin with piperine pretreatment [3]	maximum concentration of phenytoin with piperine pretreatment [3]	time to maximum concentration of phenytoin with piperine pretreatment [3]	elimination rate of propranolol with piperine [4]	maximum blood concentration / blood levels of propranolol with piperine [4]
O=c1cc(-c2ccc(O)cc2)oc2cc(O)cc(O)c12 [apigenin]	potent inhibition							
O=C(/C=C/C=C/c1ccc2c(c1)OCO2)N1CCCCC1 [piperine]		significantly slowed down	1.5 times	significantly slower elimination	significantly higher concentrations	shorter time	did not affect the elimination rate; also recorded: without slowing down the drug elimination rate	increased two fold; also recorded: doubling its blood levels
O=c1c(O)c(-c2ccc(O)c(O)c2)oc2cc(O)cc(O)c12 [quercetin]	potent inhibition							
